The values below come from ChEMBL document CHEMBL4393693, “Synthesis and Structure-Activity relationship of 1-(5-isoquinolinesulfonyl)piperazine analogues as inhibitors of Mycobacterium tuberculosis IMPDH” (Eur J Med Chem, 2019).

The IC50 is the concentration needed to halve the response being measured.

The nature of the assay: Inhibition of recombinant N-terminal His6-tagged Mycobacterium tuberculosis H37Rv IMPDH expressed in Escherichia coli BL21 (DE3) cells assessed as reduction of NAD+ to NADH using IMP and NAD+ as substrate treated 1 min after substrate incubation with enzyme by UV-visible spectrophotometry.

In the case of `O=C(NCCNS(=O)(=O)c1cccc2cnccc12)C1CCCCC1`, the IC50 was 0.5 to 1.5 µM.
